# “Also recorded” adds a separate entry of the source.
# Tests used:
# [1] = system: aorta artery of the rat without endothelium; experiment: Contraction of rat aorta without endothelium by ionophore calcium A 23187; settings: Rattus norvegicus, A 23187 at 5.10^-6 M
# [2] = system: aorta; experiment: Isolated rat aorta rings stimulated with noradrenaline (10^-6 M), relaxation; parameters: species or system rat (male Wistar); settings: read-out: AORTA St:NA IC50
# Experimental: (§1) a. Study of isolated organs removed from rats
# (§2) Male Wistar rats weighing from 350 to 400 g are used.
# (§3) After rapid sacrifice of the animal, the following are removed:
# (§4) the aorta, dissected and prepared in rings; after an equilibration period of 1 hour in the reference physiological solution (1), the prepared specimens are stimulated with a solution rich in potassium (K^+) (100 mM) or with noradrenaline (NA) (10^-6 M).
# (§5) The substances to be tested are then added (test sample 0.2 ml) in cumulative doses every 15 minutes.
# (§6) The relaxation values obtained permit an activity-dose curve to be constructed, enabling the IC50 to be calculated in M.
# (§7) The characteristics of the solutions used are as follows: […]
# [3] = system: left auricle (LA); experiment: Isolated left auricle, inotropic effect; parameters: species or system rat (male Wistar); settings: Rattus norvegicus; stimulated electrically at 3 Hz
# Experimental: as §1, §2
# (§8) the right auricle (RA) and left auricle (LA) RA beats spontaneously.
# LA is stimulated electrically at a rate of 3 Hz (180 beats per min.) (amplitude of the stimulations: threshold×2).
# (§9) Stabilisation is obtained in physiological liquid (2) after 30 minutes.
# (§10) The substances to be tested are then added (test sample 0.2 ml) in cumulative doses every 15 minutes. The effects on RA are chronotropic. The effects on LA are inotropic. The construction of the activity-dose curves enables the IC50, expressed in M, to be measured.
# [4] = molecular target: calmodulin (Homo sapiens, UniProt P0DP23); experiment: Calcium calmodulin binding, fluorescence of dansylated calmodulin
# Experimental: b. Fixation on calcium calmodulin binding
# The orientations of synthesis which may lead to possibilities of inhibiting calmodulin are evaluated by measuring the fluorescence of dansylated calmodulin.
# The substances to be tested are added to the experimental vessel (2 ml). The increase in fluorescence of dansylated calmodulin enables effect-dose curves to be constructed; measuring the EC50 gives an apparent Kd value. After extrapolation of the apparent Kd values to 0 calmodulin, the experiments carried out for different calcium-calmodulin concentration values enable the characteristic Kd values of the tested substances to be determined (Method proposed by Johnson and Wittenauer, 1983, Biochem., 211, 473-479).
# d. Evaluation of the possibility of inhibition at the calmodulin level
# [5] = system: aorta; experiment: Isolated rat aorta rings stimulated with potassium-rich solution (K+ 100 mM), relaxation; parameters: species or system rat (male Wistar); settings: aorta rings stimulated with K+ 100 mM, read-out: AORTA St:K+ IC50
# Experimental: as §1, §2, §3, §4, §5, §6, §7
# [6] = system: left auricle / aorta; experiment: Evaluation of myocardium/vessel selectivity (IC50 LA/IC50 aorta); parameters: species or system rat (male Wistar)
# Source text: c. Evaluation of myocardium/vessel selectivity
# The IC50 LA/IC50 aorta ratio leads to a first evaluation; the high values indicate vascular selectivity.
# [7] = system: dogs; experiment: Haemodynamic study in anaesthetised dogs; type: in vivo, mongrel dogs; settings: for dP/dt: Left ventricular pressure derivative, variation: measured at 20 minutes
# Experimental: A haemodynamic study was carried out on mongrel dogs weighing from 25 to 30 kg, which were anaesthetised with sodium pentobarbital in a dose of 30 mg/kg i.v., intubated and ventilated, and subjected to a thoracotomy at the 5th left intercostal space.
# The left and aortal ventricular pressures are measured by means of MILLAR probes introduced by the femoral artery route. The cardiac frequency is measured by Biotach Gould ECG (derivation D2); the gases of the aortal blood and of the coronary sinus are analysed by an ABL3 radiometer.
# The products tested were injected by the femoral vein route.
# [8] = system: right auricle (RA); experiment: Isolated right auricle, chronotropic effect; parameters: species or system rat (male Wistar); settings: Rattus norvegicus; spontaneously beating; read-out: RIGHT AURICLE (RA) (CHRONOTROPIC EFFECT) IC50
# Experimental: as §1, §2, §8, §9, §10
# [9] = molecular target: T1, Ca++ channels of membranes of transverse tubules in skeletal muscle; experiment: Binding on Ca++ channels of membranes of transverse tubules in skeletal muscle; settings: transverse tubules in skeletal muscle; read-out: Kd for the Ca++ channel
# T1 construct: membranes of transverse tubules in skeletal muscle; from tissue; host or cells: skeletal muscle, transverse tubule membranes
# Source text: (§11) C. Binding on Ca^++ channels of membranes of transverse tubules in skeletal muscle.
# [10] = molecular target: T2, Ca++ channels of membranes of transverse tubules in skeletal muscle (Homo sapiens, UniProt Q13698); experiment: as above
# T2 construct: membranes of transverse tubules in skeletal muscle; from tissue; host or cells: skeletal muscle, transverse tubule membranes
# Source text: as §11
# T1 sequence (Q13698 whole entry): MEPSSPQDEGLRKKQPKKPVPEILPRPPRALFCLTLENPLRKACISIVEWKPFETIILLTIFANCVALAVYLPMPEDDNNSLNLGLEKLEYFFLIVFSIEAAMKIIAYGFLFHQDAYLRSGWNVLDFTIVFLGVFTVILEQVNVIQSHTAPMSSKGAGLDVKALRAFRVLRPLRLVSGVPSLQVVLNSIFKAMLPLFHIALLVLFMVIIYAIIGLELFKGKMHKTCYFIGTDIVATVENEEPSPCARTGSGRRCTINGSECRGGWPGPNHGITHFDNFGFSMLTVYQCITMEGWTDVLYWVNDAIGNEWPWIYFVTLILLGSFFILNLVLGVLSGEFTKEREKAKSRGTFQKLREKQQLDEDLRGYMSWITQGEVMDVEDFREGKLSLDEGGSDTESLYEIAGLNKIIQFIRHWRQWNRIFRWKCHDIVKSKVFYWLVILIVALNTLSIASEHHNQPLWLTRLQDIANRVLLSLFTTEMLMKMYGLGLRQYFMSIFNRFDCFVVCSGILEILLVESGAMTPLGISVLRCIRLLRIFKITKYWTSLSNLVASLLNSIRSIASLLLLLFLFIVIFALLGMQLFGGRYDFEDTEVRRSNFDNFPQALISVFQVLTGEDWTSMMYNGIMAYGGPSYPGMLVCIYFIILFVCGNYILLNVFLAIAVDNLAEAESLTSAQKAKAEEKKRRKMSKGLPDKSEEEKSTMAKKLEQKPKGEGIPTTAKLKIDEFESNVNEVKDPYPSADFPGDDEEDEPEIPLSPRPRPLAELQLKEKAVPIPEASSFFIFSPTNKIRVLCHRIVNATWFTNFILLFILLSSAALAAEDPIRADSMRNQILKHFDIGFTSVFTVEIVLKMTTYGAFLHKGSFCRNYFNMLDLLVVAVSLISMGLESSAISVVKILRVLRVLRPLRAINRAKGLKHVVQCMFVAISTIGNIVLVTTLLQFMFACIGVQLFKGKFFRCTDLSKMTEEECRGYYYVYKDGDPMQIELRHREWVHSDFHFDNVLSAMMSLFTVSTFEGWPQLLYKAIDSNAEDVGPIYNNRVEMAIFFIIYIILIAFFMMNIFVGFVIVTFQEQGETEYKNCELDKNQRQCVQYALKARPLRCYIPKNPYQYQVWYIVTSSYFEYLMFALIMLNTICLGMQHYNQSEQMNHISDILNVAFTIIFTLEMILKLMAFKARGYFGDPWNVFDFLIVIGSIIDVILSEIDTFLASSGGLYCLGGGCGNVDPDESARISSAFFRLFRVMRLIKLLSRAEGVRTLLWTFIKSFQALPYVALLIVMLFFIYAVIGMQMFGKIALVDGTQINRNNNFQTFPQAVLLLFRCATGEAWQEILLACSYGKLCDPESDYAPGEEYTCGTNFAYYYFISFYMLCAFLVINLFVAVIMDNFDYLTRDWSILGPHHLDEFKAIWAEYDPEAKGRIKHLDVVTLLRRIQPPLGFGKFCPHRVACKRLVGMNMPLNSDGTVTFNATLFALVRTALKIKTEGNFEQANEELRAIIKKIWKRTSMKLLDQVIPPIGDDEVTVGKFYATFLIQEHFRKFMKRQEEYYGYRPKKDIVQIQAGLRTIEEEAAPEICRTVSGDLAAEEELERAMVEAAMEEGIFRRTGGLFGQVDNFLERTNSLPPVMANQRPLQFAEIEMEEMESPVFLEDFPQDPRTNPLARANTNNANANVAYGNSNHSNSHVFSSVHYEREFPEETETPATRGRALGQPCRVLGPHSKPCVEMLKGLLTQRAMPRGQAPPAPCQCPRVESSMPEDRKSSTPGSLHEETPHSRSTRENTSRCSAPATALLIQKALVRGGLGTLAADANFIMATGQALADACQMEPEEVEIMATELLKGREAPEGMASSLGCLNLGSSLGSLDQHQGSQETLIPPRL
# T1 sequence (P54289 25-944 partner limits assumed): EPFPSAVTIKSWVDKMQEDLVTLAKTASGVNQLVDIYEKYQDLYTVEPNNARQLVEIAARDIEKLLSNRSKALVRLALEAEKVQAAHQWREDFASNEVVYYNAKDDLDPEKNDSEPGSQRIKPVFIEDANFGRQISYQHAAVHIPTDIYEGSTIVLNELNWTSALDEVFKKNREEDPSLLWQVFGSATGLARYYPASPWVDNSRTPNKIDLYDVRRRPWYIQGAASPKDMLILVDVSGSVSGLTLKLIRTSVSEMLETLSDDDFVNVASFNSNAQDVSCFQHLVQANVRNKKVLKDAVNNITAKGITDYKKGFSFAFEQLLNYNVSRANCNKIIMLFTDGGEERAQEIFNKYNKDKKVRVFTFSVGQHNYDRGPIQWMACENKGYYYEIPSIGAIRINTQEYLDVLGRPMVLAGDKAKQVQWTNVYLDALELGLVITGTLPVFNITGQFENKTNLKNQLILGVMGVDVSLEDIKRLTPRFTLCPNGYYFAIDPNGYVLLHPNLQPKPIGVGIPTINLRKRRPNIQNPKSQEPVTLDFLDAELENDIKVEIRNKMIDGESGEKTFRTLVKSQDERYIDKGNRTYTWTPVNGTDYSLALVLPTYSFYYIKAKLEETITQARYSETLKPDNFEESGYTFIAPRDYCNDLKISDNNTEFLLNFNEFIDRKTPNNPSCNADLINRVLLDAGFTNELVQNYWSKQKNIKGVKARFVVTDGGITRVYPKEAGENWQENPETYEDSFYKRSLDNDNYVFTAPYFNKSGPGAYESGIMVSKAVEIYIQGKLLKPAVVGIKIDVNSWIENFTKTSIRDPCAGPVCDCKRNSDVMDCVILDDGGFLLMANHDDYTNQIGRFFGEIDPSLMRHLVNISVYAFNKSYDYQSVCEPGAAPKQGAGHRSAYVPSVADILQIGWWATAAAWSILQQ
# T1 sequence (P54289 945-1103 partner limits assumed): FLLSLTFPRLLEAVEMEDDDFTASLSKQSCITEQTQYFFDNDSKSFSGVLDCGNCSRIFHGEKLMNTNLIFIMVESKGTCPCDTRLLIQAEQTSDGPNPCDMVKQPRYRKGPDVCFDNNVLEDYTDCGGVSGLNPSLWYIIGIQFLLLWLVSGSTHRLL
# T1 sequence (Q02641 whole entry partner): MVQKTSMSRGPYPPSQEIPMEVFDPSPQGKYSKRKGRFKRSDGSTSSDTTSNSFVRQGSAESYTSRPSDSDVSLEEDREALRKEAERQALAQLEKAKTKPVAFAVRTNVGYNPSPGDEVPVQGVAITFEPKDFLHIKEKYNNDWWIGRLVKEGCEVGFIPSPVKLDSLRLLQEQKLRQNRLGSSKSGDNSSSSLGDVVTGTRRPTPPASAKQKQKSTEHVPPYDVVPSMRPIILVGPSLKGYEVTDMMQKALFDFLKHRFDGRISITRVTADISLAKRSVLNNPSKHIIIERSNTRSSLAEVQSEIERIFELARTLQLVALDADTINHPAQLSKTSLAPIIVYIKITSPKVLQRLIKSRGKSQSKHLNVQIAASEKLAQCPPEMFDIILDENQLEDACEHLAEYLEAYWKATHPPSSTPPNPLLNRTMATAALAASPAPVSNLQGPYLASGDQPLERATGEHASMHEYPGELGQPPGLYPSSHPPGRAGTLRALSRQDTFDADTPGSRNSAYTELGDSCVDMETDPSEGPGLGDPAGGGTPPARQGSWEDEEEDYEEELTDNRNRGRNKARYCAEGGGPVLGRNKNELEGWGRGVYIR
# T1 sequence (Q06432 whole entry partner): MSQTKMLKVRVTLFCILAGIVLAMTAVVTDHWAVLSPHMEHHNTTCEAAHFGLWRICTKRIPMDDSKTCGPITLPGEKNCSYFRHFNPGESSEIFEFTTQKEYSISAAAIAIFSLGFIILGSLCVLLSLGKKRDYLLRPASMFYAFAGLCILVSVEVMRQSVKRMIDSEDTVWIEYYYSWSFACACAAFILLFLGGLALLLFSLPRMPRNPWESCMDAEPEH
# T2 sequence (Q13698 whole entry): as the sequence (Q13698 whole entry) above
# T2 sequence (P54289 25-944 partner limits assumed): as the sequence (P54289 25-944 partner limits assumed) above
# T2 sequence (P54289 945-1103 partner limits assumed): as the sequence (P54289 945-1103 partner limits assumed) above
# T2 sequence (Q02641 whole entry partner): as the sequence (Q02641 whole entry partner) above
# T2 sequence (Q06432 whole entry partner): as the sequence (Q06432 whole entry partner) above
smiles,measurement,setting,value
"COc1cccc(C(C#N)(CCCN(C)CCc2ccc(OC)c3c2CCCN3C(C)=O)Sc2ccccc2)c1 (stereo not drawn) [Example 1, 2-(3-methoxyphenyl)-2-phenylthio-5-{N-[(1-acetyl-8-methoxy-1,2,3,4-tetrahydroquinol-5-yl)ethyl]-N-methylamino}-pentanenitrile]",IC50,[1],~1000 nM
same,IC50,[2],5500 nM
same,IC50,[3],82000 nM
same,affinity for calmodulin,[4],an affinity for calmodulin coherent with the biological effect
same,Kd/IC50 AORTA K+,[4]; close to 1 indicates vascular inhibition through calmodulin,1.08
same,Kd,"[4]; extrapolated to 0 calmodulin, read-out: Kd (cam)",810 nM
same,mechanism indicated by the pharmacological effects,[4]; in vitro,"intracellular inhibitory mechanisms and, especially, a calcium-calmodulin inhibition mechanism"
same,IC50,[5]; Rattus norvegicus,750 nM
same,IC50,[5],600 nM
same,LA/AORTA SELECTIVITY (St:K+),"[6]; IC50 LA/IC50 aorta, high values indicate vascular selectivity",100
same,vascular selectivity,[6]; compared with verapamil,this selectivity is greatest; also recorded: a greater selectivity in favour of vessels
same,"AAP: Average arterial pressure, maximum variation",[7]; IV 30 μg/kg,0%
same,"ACF: Average coronary flow, maximum variation",[7]; IV 30 μg/kg,+54%
same,"CF: Cardiac frequency, maximum variation",[7]; IV 30 μg/kg,-5%
same,"I/C: Myocardial O2 intake/consumption ratio, maximum variation",[7]; IV 30 μg/kg,+19%
same,"PO2 SC: PO2 coronary blood sinus, maximum variation",[7]; IV 30 μg/kg,+14%
same,"PR: PR space of the ECG, maximum variation",[7]; IV 30 μg/kg,0%
same,"AAP: Average arterial pressure, maximum variation",[7]; IV 100 μg/kg,-9%
same,"ACF: Average coronary flow, maximum variation",[7]; IV 100 μg/kg,+109%
same,"CF: Cardiac frequency, maximum variation",[7]; IV 100 μg/kg,-10%
same,"I/C: Myocardial O2 intake/consumption ratio, maximum variation",[7]; IV 100 μg/kg,+55%
same,"PO2 SC: PO2 coronary blood sinus, maximum variation",[7]; IV 100 μg/kg,+36%
same,"PR: PR space of the ECG, maximum variation",[7]; IV 100 μg/kg,+7%
same,"dP/dt: Left ventricular pressure derivative, variation",[7]; IV 100 μg/kg,0%
same,"AAP: Average arterial pressure, maximum variation",[7]; IV 300 μg/kg,-24%
same,"ACF: Average coronary flow, maximum variation",[7]; IV 300 μg/kg,+117%
same,"CF: Cardiac frequency, maximum variation",[7]; IV 300 μg/kg,-14%
same,"I/C: Myocardial O2 intake/consumption ratio, maximum variation",[7]; IV 300 μg/kg,+118%
same,"PO2 SC: PO2 coronary blood sinus, maximum variation",[7]; IV 300 μg/kg,+63%
same,"PR: PR space of the ECG, maximum variation",[7]; IV 300 μg/kg,+19%
same,"dP/dt: Left ventricular pressure derivative, variation",[7]; IV 300 μg/kg,-3%
same,negative inotropic effect / cardiotropic effect,"[7]; i.v., compared with Verapamil",absence of a negative inotropic effect
same,percentage increase in the PR duration,"[7]; i.v., compared with Verapamil",reduction in the percentage increase in the PR duration
same,IC50,[8],10000 nM
same,Kd,[9],1 nM
same,affinity for calcium channels relative to verapamil,[10],~20 times the one of verapamil

# From patent publication US4792559A, “1,2,3,4-tetrahydroquinoline substituted 5-aminopentanenitrile compounds and their use as calcium modulators” (ADIR et Compagnie, priority 1985, dated 1988)
